Experimental data reported in patent US12371428B2 (Exelixis, Inc., priority 2019, dated 2025).
pIC50: −log10 of the molar value. Structures can show the parent of a compound that is named as a salt.

What was measured:
[1] = biological target: KDR (phospho-KDR, VEGF165-stimulated HUVEC cells) (Homo sapiens (Human), UniProt P35968); experiment: KDR autophosphorylation ELISA in HUVEC cells (Example G); format: cell-based; settings: cellular activity; KDR autophosphorylation ELISA in HUVEC cells
How it was run: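 Cells seeded, grown 24 h at 37 °C, starved 24 h serum-free; cpd 8-pt curve, 0.3% DMSO, 1 h; VEGF165 100 ng/mL, 5 min; cold PBS wash, lysis with orthovanadate and protease/phosphatase inhibitors; pKDR ELISA; IC50 by 4-parameter logistic regression.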

[2] = biological target: Met (phospho-Met, HGF-stimulated PC-3 prostate cancer cells) (Homo sapiens (Human), UniProt P08581); experiment: Met autophosphorylation ELISA in PC-3 cells (Example F); format: cell-based; settings: cellular activity; Met autophosphorylation ELISA in PC-3 cells; read-out: c-Met IC50
Chain of Met (phospho-Met, HGF-stimulated PC-3 prostate cancer cells) (P08581 25-1390): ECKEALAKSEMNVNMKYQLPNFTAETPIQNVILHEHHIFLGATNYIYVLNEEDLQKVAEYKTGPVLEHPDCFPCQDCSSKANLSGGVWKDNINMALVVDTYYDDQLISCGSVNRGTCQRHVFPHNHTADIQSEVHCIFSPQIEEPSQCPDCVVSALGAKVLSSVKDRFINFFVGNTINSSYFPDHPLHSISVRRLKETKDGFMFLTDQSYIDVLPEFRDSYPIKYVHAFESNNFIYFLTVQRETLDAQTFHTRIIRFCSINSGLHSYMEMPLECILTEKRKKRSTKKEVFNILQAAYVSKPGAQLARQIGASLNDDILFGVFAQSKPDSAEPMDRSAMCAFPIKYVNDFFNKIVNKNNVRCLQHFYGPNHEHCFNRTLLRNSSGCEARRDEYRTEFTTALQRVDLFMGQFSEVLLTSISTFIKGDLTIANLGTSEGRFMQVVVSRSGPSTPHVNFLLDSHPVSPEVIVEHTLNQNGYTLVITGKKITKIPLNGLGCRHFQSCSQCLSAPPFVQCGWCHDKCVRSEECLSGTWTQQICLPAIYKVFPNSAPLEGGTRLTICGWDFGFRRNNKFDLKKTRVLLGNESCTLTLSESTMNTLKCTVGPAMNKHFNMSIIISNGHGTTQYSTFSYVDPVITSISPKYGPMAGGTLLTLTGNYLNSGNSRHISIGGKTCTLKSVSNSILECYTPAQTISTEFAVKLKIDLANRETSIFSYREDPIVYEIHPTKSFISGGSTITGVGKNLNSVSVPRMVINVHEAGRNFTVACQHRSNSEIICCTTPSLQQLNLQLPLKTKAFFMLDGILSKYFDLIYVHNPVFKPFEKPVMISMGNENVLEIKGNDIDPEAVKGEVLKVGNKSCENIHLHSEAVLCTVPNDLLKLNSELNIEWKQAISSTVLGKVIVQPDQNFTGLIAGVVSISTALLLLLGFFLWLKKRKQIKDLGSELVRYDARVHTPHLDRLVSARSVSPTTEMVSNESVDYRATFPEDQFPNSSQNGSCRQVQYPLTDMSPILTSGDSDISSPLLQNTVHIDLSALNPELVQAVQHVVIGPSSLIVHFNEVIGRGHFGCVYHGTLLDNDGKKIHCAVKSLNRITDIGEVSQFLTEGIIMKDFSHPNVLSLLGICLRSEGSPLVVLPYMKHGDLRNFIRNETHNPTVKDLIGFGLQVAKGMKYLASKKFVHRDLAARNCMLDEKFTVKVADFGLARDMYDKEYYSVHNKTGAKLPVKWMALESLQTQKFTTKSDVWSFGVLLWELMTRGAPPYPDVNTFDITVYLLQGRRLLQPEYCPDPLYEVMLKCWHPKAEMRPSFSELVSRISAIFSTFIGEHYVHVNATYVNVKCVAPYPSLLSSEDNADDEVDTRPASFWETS
How it was run: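 Sandwich ELISA for phospho-Met (panTyr) in PC-3 lysates. Cells starved 3 h serum-free, compound 1 h (8-pt curve, 0.3% DMSO), HGF 100 ng/mL 10 min. 100% = HGF + DMSO; 0% = HGF + reference inhibitor. IC50 by 4-parameter fit.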

Chain of KDR (phospho-KDR, VEGF165-stimulated HUVEC cells) (P35968 20-1356): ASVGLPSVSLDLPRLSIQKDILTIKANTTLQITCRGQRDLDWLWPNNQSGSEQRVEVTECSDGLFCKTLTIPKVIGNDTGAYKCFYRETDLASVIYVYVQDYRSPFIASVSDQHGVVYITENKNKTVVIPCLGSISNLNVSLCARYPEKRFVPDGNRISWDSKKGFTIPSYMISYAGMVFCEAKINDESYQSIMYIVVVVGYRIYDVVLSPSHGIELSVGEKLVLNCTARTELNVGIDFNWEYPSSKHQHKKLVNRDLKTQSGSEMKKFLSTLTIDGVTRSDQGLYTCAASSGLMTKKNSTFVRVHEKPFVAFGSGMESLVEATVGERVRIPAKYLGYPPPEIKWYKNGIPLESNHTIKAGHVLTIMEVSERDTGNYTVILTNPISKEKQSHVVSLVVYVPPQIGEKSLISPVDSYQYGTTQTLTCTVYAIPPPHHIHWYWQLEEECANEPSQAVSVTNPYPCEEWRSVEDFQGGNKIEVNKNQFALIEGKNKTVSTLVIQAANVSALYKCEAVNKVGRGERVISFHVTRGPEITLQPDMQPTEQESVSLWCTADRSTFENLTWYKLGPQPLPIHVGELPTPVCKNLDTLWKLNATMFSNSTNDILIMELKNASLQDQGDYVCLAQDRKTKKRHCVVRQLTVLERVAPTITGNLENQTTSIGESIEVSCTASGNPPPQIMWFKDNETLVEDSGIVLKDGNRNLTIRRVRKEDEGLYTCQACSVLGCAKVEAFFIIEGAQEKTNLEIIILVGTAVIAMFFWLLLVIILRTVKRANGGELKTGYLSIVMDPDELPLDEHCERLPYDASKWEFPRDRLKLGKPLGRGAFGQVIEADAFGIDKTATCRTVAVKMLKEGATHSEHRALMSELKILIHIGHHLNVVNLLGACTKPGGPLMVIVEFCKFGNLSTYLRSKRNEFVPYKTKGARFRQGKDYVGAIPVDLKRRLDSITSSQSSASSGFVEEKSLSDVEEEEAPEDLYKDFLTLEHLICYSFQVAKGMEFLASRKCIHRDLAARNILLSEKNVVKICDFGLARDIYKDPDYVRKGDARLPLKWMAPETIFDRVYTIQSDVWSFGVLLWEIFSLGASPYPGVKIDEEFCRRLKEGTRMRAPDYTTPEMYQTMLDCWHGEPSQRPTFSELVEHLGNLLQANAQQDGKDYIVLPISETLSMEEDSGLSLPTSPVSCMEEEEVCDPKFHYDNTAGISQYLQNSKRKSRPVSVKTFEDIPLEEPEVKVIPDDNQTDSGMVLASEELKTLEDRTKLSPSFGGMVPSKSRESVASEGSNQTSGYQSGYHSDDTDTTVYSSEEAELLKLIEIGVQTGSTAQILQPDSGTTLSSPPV

SMILES: COc1cc2nccc(Oc3ccc(NC(=O)C4=C5CCCN5CC(c5ccc(F)cc5)C4=O)cc3F)c2nc1OC (single isomer, unassigned; enantiomer 1) [Compound 374, N-[4-[(6,7-dimethoxy-1,5-naphthyridin-4-yl)oxy]-3-fluorophenyl]-6-(4-fluorophenyl)-7-oxo-2,3,5,6-tetrahydro-1H-indolizine-8-carboxamide, enantiomer 1]
- pIC50 [1]: < 6.52
- pIC50 [2]: > 7.00

SMILES: COc1cc2nccc(Oc3ccc(NC(=O)c4cn(C)c(C)c(-c5ccc(F)cc5)c4=O)cc3Cl)c2nc1OC [Compound 388, N-[3-chloro-4-[(6,7-dimethoxy-1,5-naphthyridin-4-yl)oxy]phenyl]-5-(4-fluorophenyl)-1,6-dimethyl-4-oxopyridine-3-carboxamide]
- pIC50 [1]: > 7.00
- pIC50 [2]: > 7.00

SMILES: COc1cc2nccc(Oc3ccc(NC(=O)c4c(C)cc(C)n(-c5ccc(F)cc5)c4=O)cc3)c2nc1OC [Compound 288, N-[4-[(6,7-Dimethoxy-1,5-naphthyridin-4-yl)oxy]phenyl]-1-(4-fluorophenyl)-4,6-dimethyl-2-oxopyridine-3-carboxamide]
- pIC50 [1]: > 7.00
- pIC50 [2]: > 7.00

SMILES: COc1cc2nccc(Oc3ccc(NC(=O)c4cn(C)cc(-c5ccccc5)c4=O)cc3)c2nc1OC [Compound 39, N-[4-[(6,7-Dimethoxy-1,5-naphthyridin-4-yl)oxy]phenyl]-1-methyl-4-oxo-5-phenylpyridine-3-carboxamide hydrochloride]
- pIC50 [1]: > 7.00
- pIC50 [2]: > 7.00

SMILES: COc1cc2nccc(Oc3ccc(NC(=O)c4cn(C)c(C)c(-c5ccc(F)cc5)c4=O)c(F)c3F)c2nc1OC [Compound 390, N-[4-[(6,7-dimethoxy-1,5-naphthyridin-4-yl)oxy]-2,3-difluorophenyl]-5-(4-fluorophenyl)-1,6-dimethyl-4-oxopyridine-3-carboxamide]
- pIC50 [1]: > 7.00
- pIC50 [2]: > 7.00

SMILES: Cc1ccc(C(=O)Nc2ccc(Oc3ccnc4ccc(OCCN(C)C)nc34)c(F)c2)c(=O)n1-c1ccc(F)cc1 [Compound 353, N-[4-[[6-[2-(dimethylamino)ethoxy]-1,5-naphthyridin-4-yl]oxy]-3-fluorophenyl]-1-(4-fluorophenyl)-6-methyl-2-oxopyridine-3-carboxamide]
- pIC50 [1]: > 7.00
- pIC50 [2]: > 7.00

SMILES: COc1cnc2c(Oc3ccc(NC(=O)c4cnc(C)n(-c5ccc(F)cc5)c4=O)cc3)ccnc2c1 [Compound 266, 1-(4-Fluorophenyl)-N-[4-[(7-methoxy-1,5-naphthyridin-4-yl)oxy]phenyl]-2-methyl-6-oxopyrimidine-5-carboxamide]
- pIC50 [1]: < 6.52
- pIC50 [2]: > 7.00

SMILES: Cc1ccc2nccc(Oc3ccc(NC(=O)c4c(C)cc(C)n(-c5ccc(F)cc5)c4=O)cc3F)c2n1 [Compound 297, N-[3-Fluoro-4-[(6-methyl-1,5-naphthyridin-4-yl)oxy]phenyl]-1-(4-fluorophenyl)-4,6-dimethyl-2-oxopyridine-3-carboxamide]
- pIC50 [1]: > 7.00
- pIC50 [2]: > 7.00

SMILES: CCOc1c(C(=O)Nc2ccc(Oc3ccnc4cc(OC)c(OC)nc34)c(F)c2)c(=O)c(-c2ccc(F)cc2)c(C)n1C [Compound 369, N-[4-[(6,7-dimethoxy-1,5-naphthyridin-4-yl)oxy]-3-fluorophenyl]-2-ethoxy-5-(4-fluorophenyl)-1,6-dimethyl-4-oxopyridine-3-carboxamide]
- pIC50 [1]: > 7.00
- pIC50 [2]: > 7.00

SMILES: Cc1ccc(C(=O)Nc2ccc(Oc3ccnc4ccc(OCCN5CCOCC5)nc34)c(F)c2)c(=O)n1-c1ccc(F)cc1 [Compound 351, N-[3-fluoro-4-[[6-(2-morpholin-4-ylethoxy)-1,5-naphthyridin-4-yl]oxy]phenyl]-1-(4-fluorophenyl)-6-methyl-2-oxopyridine-3-carboxamide]
- pIC50 [1]: > 7.00
- pIC50 [2]: > 7.00

SMILES: COc1cc2nccc(Oc3ccc(NC(=O)C4=C5CCCN5CC(c5ccc(F)cc5)C4=O)cc3F)c2nc1OC (racemic) [Compound 373, N-[4-[(6,7-dimethoxy-1,5-naphthyridin-4-yl)oxy]-3-fluorophenyl]-6-(4-fluorophenyl)-7-oxo-2,3,5,6-tetrahydro-1H-indolizine-8-carboxamide]
- pIC50 [1]: < 6.52
- pIC50 [2]: > 7.00

SMILES: Cc1ncc(C(=O)Nc2ccc(Oc3ccnc4ccc(OCCN5CCOCC5)nc34)c(F)c2)c(O)c1-c1ccc(F)cc1 [Compound 352, N-[3-fluoro-4-[[6-(2-morpholin-4-ylethoxy)-1,5-naphthyridin-4 yl]oxy]phenyl]-5-(4-fluorophenyl)-4-hydroxy-6-methylpyridine-3-carboxamide]
- pIC50 [1]: > 7.00
- pIC50 [2]: > 7.00

SMILES: CCn1cc(C(=O)Nc2ccc(Oc3ccnc4cc(OC)c(OC)nc34)cc2)c(=O)c(-c2ccc(F)cc2C)c1CO [Compound 284, N-[4-[(6,7-Dimethoxy-1,5-naphthyridin-4-yl)oxy]phenyl]-1-ethyl-5-(4-fluoro-2-methylphenyl)-6-(hydroxymethyl)-4-oxopyridine-3-carboxamide]
- pIC50 [1]: < 6.52
- pIC50 [2]: > 7.00

SMILES: CCn1cc(C(=O)Nc2ccc(Oc3ccnc4cc(OC)c(OC)nc34)c(F)c2)c(=O)c(-c2ccc(F)cc2C)c1CO [Compound 283, N-[4-[(6,7-Dimethoxy-1,5-naphthyridin-4-yl)oxy]-3-fluorophenyl]-1-ethyl-5-(4-fluoro-2-methylphenyl)-6-(hydroxymethyl)-4-oxopyridine-3-carboxamide]
- pIC50 [1]: 6.52 to 7.00
- pIC50 [2]: > 7.00

SMILES: COc1cc2nccc(Oc3ccc(NC(=O)c4nn(C(C)C)c(C)c(-c5ccc(F)cc5)c4=O)cc3F)c2nc1OC [Compound 364, N-[4-[(6,7-dimethoxy-1,5-naphthyridin-4-yl)oxy]-3-fluorophenyl]-5-(4-fluorophenyl)-6-methyl-4-oxo-1-propan-2-ylpyridazine-3-carboxamide]
- pIC50 [1]: > 7.00
- pIC50 [2]: > 7.00

SMILES: COc1cnc2c(Oc3ccc(NC(=O)c4c(C)ccn(-c5ccc(F)cc5)c4=O)cc3)ccnc2c1 [Compound 300, 1-(4-Fluorophenyl)-N-[4-[(7-methoxy-1,5-naphthyridin-4-yl)oxy]phenyl]-4-methyl-2-oxopyridine-3-carboxamide]
- pIC50 [1]: > 7.00
- pIC50 [2]: > 7.00

SMILES: COc1cc2nccc(Oc3ccc(NC(=O)c4cn(C)cc(-c5ccc(Cl)cc5)c4=O)cc3F)c2nc1OC [Compound 38, 5-(4-Chlorophenyl)-N-[4-[(6,7-dimethoxy-1,5-naphthyridin-4-yl)oxy]-3-fluorophenyl]-1-methyl-4-oxopyridine-3-carboxamide hydrochloride]
- pIC50 [1]: > 7.00
- pIC50 [2]: 6.52 to 7.00

SMILES: COc1cc2nccc(Oc3ccc(NC(=O)c4cccn(-c5ccc(F)cc5)c4=O)cc3F)c2nc1OC [Compound 293, N-[4-[(6,7-Dimethoxy-1,5-naphthyridin-4-yl)oxy]-3-fluorophenyl]-1-(4-fluorophenyl)-2-oxopyridine-3-carboxamide]
- pIC50 [1]: > 7.00
- pIC50 [2]: > 7.00

SMILES: Cc1ccc(C(=O)Nc2ccc(Oc3ccnc4cc(OCc5ccccc5)cnc34)c(F)c2)c(=O)n1-c1ccc(F)cc1 [Compound 275, 1-(4-Fluorophenyl)-N-[3-fluoro-4-[(7-phenylmethoxy-1,5-naphthyridin-4-yl)oxy]phenyl]-6-methyl-2-oxopyridine-3-carboxamide]
- pIC50 [1]: > 7.00
- pIC50 [2]: > 7.00

SMILES: COc1cnc2c(Oc3ccc(NC(=O)c4cnc(C)n(-c5ccc(F)cc5)c4=O)cc3F)ccnc2c1 [Compound 265, N-[3-Fluoro-4-[(7-methoxy-1,5-naphthyridin-4-yl)oxy]phenyl]-1-(4-fluorophenyl)-2-methyl-6-oxopyrimidine-5-carboxamide]
- pIC50 [1]: 6.52 to 7.00
- pIC50 [2]: > 7.00

SMILES: COc1ccc2nccc(Oc3ccc(NC(=O)c4cn(C)c(C)c(-c5ccc(F)cc5)c4=O)cc3)c2n1 [Compound 356, 5-(4-fluorophenyl)-N-[4-[(6-methoxy-1,5-naphthyridin-4-yl)oxy]phenyl]-1,6-dimethyl-4-oxopyridine-3-carboxamide]
- pIC50 [1]: < 6.52
- pIC50 [2]: > 7.00

SMILES: COc1ccc2nccc(Oc3ccc(NC(=O)c4ccc(C)n(-c5ccc(F)cc5)c4=O)cc3F)c2c1 [Compound 346, N-[3-fluoro-4-(6-methoxyquinolin-4-yl)oxyphenyl]-1-(4-fluorophenyl)-6-methyl-2-oxopyridine-3-carboxamide]
- pIC50 [1]: > 7.00
- pIC50 [2]: > 7.00

SMILES: COc1ccc2nccc(Oc3ccc(NC(=O)c4cnc(C)c(-c5ccc(F)cc5)c4O)cc3)c2n1 [Compound 342, 5-(4-fluorophenyl)-4-hydroxy-N-[4-[(6-methoxy-1,5-naphthyridin-4-yl)oxy]phenyl]-6-methylpyridine-3-carboxamide]
- pIC50 [1]: > 7.00
- pIC50 [2]: > 7.00

SMILES: COc1ccc2nccc(Oc3ccc(NC(=O)c4ncc(C)n(-c5ccc(F)cc5C)c4=O)cc3F)c2n1 [Compound 394, N-[3-fluoro-4-[(6-methoxy-1,5-naphthyridin-4-yl)oxy]phenyl]-4-(4-fluoro-2-methylphenyl)-5-methyl-3-oxopyrazine-2-carboxamide]
- pIC50 [1]: < 6.52
- pIC50 [2]: > 7.00

SMILES: COCc1c(-c2ccc(F)cc2)c(=O)c(C(=O)Nc2ccc(Oc3ccnc4cc(OC)cnc34)c(F)c2)cn1C [Compound 270, N-[3-Fluoro-4-[(7-methoxy-1,5-naphthyridin-4-yl)oxy]phenyl]-5-(4-fluorophenyl)-6-(methoxymethyl)-1-methyl-4-oxopyridine-3-carboxamide]
- pIC50 [1]: < 6.52
- pIC50 [2]: 6.52 to 7.00

SMILES: COc1cnc2c(Oc3ccc(NC(=O)c4c(C)cc(C)n(-c5ccc(F)cc5)c4=O)cc3F)ccnc2c1 [Compound 280, N-[3-Fluoro-4-[(7-methoxy-1,5-naphthyridin-4-yl)oxy]phenyl]-1-(4-fluorophenyl)-4,6-dimethyl-2-oxopyridine-3-carboxamide]
- pIC50 [1]: > 7.00
- pIC50 [2]: > 7.00
